Data as given in patent publication US12378224B2 (Dong-A Socio Holdings Co., Ltd., priority 2016, dated 2025).
pIC50: −log10 of the molar value.

Target: human MER (528-end) (Homo sapiens (Human), UniProt Q12866)
Assay: HTRF Kinase Activity Biochemical Assay (KinEASE-TK)
Conditions: 10 uM ATP
Description: For the SAR (structure-activity relationship) and compound screening, HTRF (Homogeneous Time Resolved Fluorescence) kinase activity assay was employed for all MER, AXL and TYRO3 kinases using Cisbio HTRF® KinEASE™-TK kit (Cisbio, USA). The kit includes biotin-labeled TK substrate, streptavidin-XL665, Eu3+-cryptate-labeled TK antibody and HTRF® Detection buffer. There are two main steps in the kinase assay: kinase reaction and detection of phosphorylated substrate. The reaction was carried out in white low volume 384-well plate (Corning, USA) with 25 nL compound in dimethyl sulfoxide in each well. […] Then the reaction was stopped after 1 hour incubation at room temperature by adding 5 uL of HTRF® Detection buffer which also contains 0.375 nM Eu3+-cryptate-labeled TK antibody and 0.062 uM streptavidin-XL665(SA-XL665) to allow for detection of the phosphorylated peptide product. After 1 h incubation at room temperature, the fluorescence intensity was measured with Envision™ plate reader (PerkinElmer, USA). Upon excitation at 340 nm by UV, the energy from Eu3+ donor of the antibody is transferred to the FRET acceptor XL665, and […] emits light at 665 nm. The level of kinase activity was quantified by the HTRF ratio that calculated from the intensity of emission at 665 nm and emission at 620 nm (fluorescence intensity @ 665 nm/fluorescence intensity @ 620 nm×10,000). The recombinant protein of human MER (528-end) was purchased from Carnabio, Japan. The recombinant human AXL (473-end) and TYRO3 (455-end) were purchased from SignalChem, Canada.

Sequence of human MER (528-end) (Q12866 528-999 limits assumed): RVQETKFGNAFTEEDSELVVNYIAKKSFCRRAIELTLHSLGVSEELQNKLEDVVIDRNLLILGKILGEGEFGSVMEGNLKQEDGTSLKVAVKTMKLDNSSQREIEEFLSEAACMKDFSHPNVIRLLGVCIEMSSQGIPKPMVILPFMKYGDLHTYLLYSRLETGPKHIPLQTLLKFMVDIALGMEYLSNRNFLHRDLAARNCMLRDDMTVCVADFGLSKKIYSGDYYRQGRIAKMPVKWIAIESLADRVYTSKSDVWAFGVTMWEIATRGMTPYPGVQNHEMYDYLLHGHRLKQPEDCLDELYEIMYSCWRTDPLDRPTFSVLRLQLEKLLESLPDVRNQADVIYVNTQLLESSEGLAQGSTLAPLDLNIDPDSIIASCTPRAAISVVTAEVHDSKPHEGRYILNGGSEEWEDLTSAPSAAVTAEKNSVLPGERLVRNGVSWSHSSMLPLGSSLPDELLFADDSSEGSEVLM

Row | Structure (SMILES) | pIC50
1 | CN(C(=O)c1cc(-c2cnn(C)c2)cnc1N)[C@@H]1CCN(C(=O)Oc2cccc(-c3ccccc3)c2)C1 [Example 130, [1,1′-biphenyl]-3-yl (R)-3-(2-amino-N-methyl-5-(1-methyl-1H-pyrazol-4-yl)nicotinamido)pyrrolidine-1-carboxylate] | < 6.00
2 | Cn1cc(-c2cnc(N)c(C(=O)N[C@@H]3CCN(C(=O)c4ccc(-c5ccccc5-c5ccccc5)cc4)C3)c2)cn1 [Example 352, (R)—N-(1-([1,1′:2′,1″-terphenyl]-4-carbonyl)pyrrolidin-3-yl)-2-amino-5-(1-methyl-1H-pyrazol-4-yl)nicotinamide] | < 6.00
3 | Cn1cc(-c2cnc(N)c(C(=O)N[C@@H]3CCN(C(=O)c4ccc(-c5ccccc5)cc4N)C3)c2)cn1 [Example 728, (R)-2-amino-N-(1-(3-amino-[1,1′-biphenyl]-4-carbonyl)pyrrolidin-3-yl)-5-(1-methyl-1H-pyrazol-4-yl)nicotinamide] | 6.00 to 7.00
4 | Cn1cc(-c2cnc(N)c(C(=O)N[C@@H]3CCN(C(=O)Oc4cccc(C#N)c4)C3)c2)cn1 [Example 87, 3-cyanophenyl (R)-3-(2-amino-5-(1-methyl-1H-pyrazol-4-yl)nicotinamido)pyrrolidine-1-carboxylate] | < 6.00
5 | Cc1csc(-c2ccc(C(=O)N3CC[C@@H](NC(=O)c4cc(-c5cnn(C)c5)cnc4N)C3)cc2)n1 [Example 544, (R)-2-amino-5-(1-methyl-1H-pyrazol-4-yl)-N-(1-(4-(4-methylthiazol-2-yl)benzoyl)pyrrolidin-3-yl)nicotinamide] | 6.00 to 7.00
6 | Cn1cc(-c2cnc(N)c(C(=O)N[C@@H]3CCN(C(=O)Oc4ccc(Cl)cc4C4CCCCC4)C3)c2)cn1 [Example 75, 4-chloro-2-cyclohexylphenyl (R)-3-(2-amino-5-(1-methyl-1H-pyrazol-4-yl)nicotinamido)pyrrolidine-1-carboxylate] | < 6.00
7 | Nc1ncc(-c2ccc(CO)cc2)cc1C(=O)N[C@@H]1CCN(Cc2ccc(Cl)cc2)C1 [Example 237, (R)-2-amino-N-(1-(4-chlorobenzyl)pyrrolidin-3-yl)-5-(4-(hydroxymethyl)phenyl)nicotinamide] | 6.00 to 7.00
8 | Nc1ncc(-c2cnn(C3CCNCC3)c2)cc1C(=O)N[C@@H]1CCN(Cc2c(F)ccc(F)c2F)C1 [Example 162, (R)-2-amino-5-(1-(piperidin-4-yl)-1H-pyrazol-4-yl)-N-(1-(2,3,6-trifluorobenzyl)pyrrolidin-3-yl)nicotinamide] | < 6.00
9 | Nc1ncc(Br)cc1C(=O)N[C@@H]1CCN(C(=O)c2ccc(-c3ccc(F)cc3Cl)cc2)C1 [Example 580, (R)-2-amino-5-bromo-N-(1-(2′-chloro-4′-fluoro-[1,1′-biphenyl]-4-carbonyl)pyrrolidin-3-yl)nicotinamide] | 6.00 to 7.00
10 | CN1CCN(Cc2cccc(-c3ccc(C(=O)N4CC[C@@H](NC(=O)c5cc(-c6cnn(C)c6)cnc5N)C4)cc3)c2)CC1 [Example 388, (R)-2-amino-5-(1-methyl-1H-pyrazol-4-yl)-N-(1-(3′-((4-methylpiperazin-1-yl)methyl)-[1,1′-biphenyl]-4-carbonyl)pyrrolidin-3-yl)nicotinamide] | 6.00 to 7.00
11 | COc1ccc(NC(=S)N2CC[C@@H](NC(=O)c3cc(-c4cnn(C)c4)cnc3N)C2)cc1 [Example 45, (R)-2-amino-N-(1-((4-methoxyphenyl)carbamothioyl)pyrrolidin-3-yl)-5-(1-methyl-1H-pyrazol-4-yl)nicotinamide] | < 6.00
12 | Cn1cc(-c2cnc(N)c(C(=O)N[C@H]3CN(C(=O)c4ccc(-c5ccc(F)cc5Cl)cc4)C[C@H]3F)c2)cn1 [Example 682, 2-amino-N-((3S,4R)-1-(2′-chloro-4′-fluoro-[1,1′-biphenyl]-4-carbonyl)-4-fluoropyrrolidin-3-yl)-5-(1-methyl-1H-pyrazol-4-yl)nicotinamide] | < 6.00
